According to ChEMBL document CHEMBL1138642, “In vitro advanced antimycobacterial screening of cobalt(II) and copper(II) complexes of fluorinated isonicotinoylhydrazones” (2004):

How the values were obtained:
[1] = system: Mycobacterium tuberculosis; assay: Minimum bactericidal required against isoniazid resistant Mycobacterium tuberculosis was determined in monolayers of mouse bone marrow macrophages; assay type: functional
[2] = system: Mycobacterium tuberculosis; assay: Minimum inhibition concentration required against isoniazid resistant Mycobacterium tuberculosis was determined in monolayers of mouse bone marrow macrophages; assay type: functional

Compound: NNC(=O)c1ccncc1 [ISONIAZID]
- MBC [1]: > 1.6 µg/mL
- MIC [2]: > 0.2 µg/mL
